Assay results reported in PMC8778187, “A New Oxygen Containing Pyclen-Type Ligand as a Manganese(II) Binder for MRI and ^52Mn PET Applications: Equilibrium, Kinetic, Relaxometric, Structural and Radiochemical Studies” (Molecules, 2022).

Experiment: Stability and protonation constants of Zn(II) complexes by pH-potentiometry
Format: physicochemical
Conditions: Zn^2+ complex; T = 25 °C, I = 0.15 M NaCl
Protocol: The stability and protonation constants of the metal complexes formed with H2OPC2A were determined by pH-potentiometric titrations, but, for the Cu(II) complex, UV-Vis spectrophotometric measurements were also carried out to supplement the pH-potentiometric titration data (Figures S21 and S22, Supporting Information).
Metal stock solutions were prepared from the highest analytical grade chemicals, and their concentrations were determined by complexometric titration with standardized Na2H2EDTA and eriochrome black T indicator in the presence of ascorbic acid, and potassium hydrogen tartrate for MnCl2, murexide indicator for CaCl2 and CuCl2, eriochrome black T for MgCl2 and xylenol orange in the presence of hexamethylenetetramine for the solution of ZnCl2. The concentration of the ligand stock solution was determined by pH-potentiometric titrations. The protonation constants of the ligand were determined by the pH potentiometric titrations with 0.15 M NaOH, using 0.0025 M ligand solutions. The ionic strength was set to 0.15 M by using NaCl. The titrated samples (starting volume of 6 mL) were stirred mechanically, and thermostated at 25 °C by a circulating water bath (±0.1 °C). […]
To avoid the effect of CO2, N2 gas was bubbled through the solutions during the titrations process. […] For the calibration of the pH meter, KH-phtalate (pH = 4.005) and borax (pH = 9.177) buffers were used, and the H^+ ion concentrations were calculated from the measured pH values by applying the method proposed by Irving et al.. A solution of approximately 0.01 M HCl was titrated with a 0.15 M NaOH solution (0.15 or 1.00 M NaCl), and the differences between the measured and calculated pH values (for the points with pH < 2.4) were used to calculate the (H^+) from the pH values measured in the titration experiments. […] The stability constants of the metal complexes (except for Cu(II)) were determined using the direct pH-potentiometric method, by titrating samples with 1:1 metal-to-ligand ratios (the number of fitted data pairs were between 127–212), allowing 1 min for the sample equilibration to occur. […]

O=C(O)CN1CCOCCN(CC(=O)O)Cc2cccc(n2)C1 [H23,9-OPC2A, 6-Oxa-3,9,15-triazabicyclo(9.3.1)pentadeca-1(15),11,13-triene-3,9-diacetic acid]
log KMnHL: 2.08(3) | log KMnL: 14.81(1) | log KMnLOH: 10.95(2)
